Earlier results, collected in US8357388B2, “Drug depot implant designs and methods of implantation” (Warsaw Orthopedic, Inc., priority 2006, dated 2013).

System: PGE2 production
Details: in cell culture

For `COc1ccc2cc(CC(=O)O)ccc2c1` [6-methoxy-2-napthylacetic acid], the “PGE2 production and local inflammation” value is listed as “suppress PGE2 production and local inflammation”.
